Results as given in patent US7713988B2, “4,5-diphenyl-pyrimidinylamino substituted carboxylic acids, method for the production and use thereof as medicaments” (Sanofi-Aventis, priority 2006, dated 2010).

Molecular target: T1, GPCR GPR40 (Homo sapiens, UniProt O14842)
T1 construct: expressed in transfected cells; host or cells: HEK293
Assay: In vitro FLIPR assay with recombinant cells which express the GPCR GPR40 (intracellular Ca2+ change)
Format: cell-based
Conditions: 100 μM test substance; recombinant HEK293 cells expressing GPR40; relative to control (0%: no test substance; 100%: 10 μM reference agonist linoleic acid)
Procedure: In vitro FLIPR assay with recombinant cells which express the GPCR GPR40 Function-testing assays were carried out by means of the FLIPR technique (“Fluorescence Imaging Plate Reader”, Molecular Devices Corp.). For this purpose, agonist-induced changes in the intracellular concentration of Ca^2+ in recombinant HEK293 cells which expressed the GPCR GPR40 were determined.
For the investigations, cells were seeded in 96-well microtiter plates (60 000 cells/well) and allowed to grow overnight. The medium was removed and the cells were incubated in buffer which contained the fluorescent dye fluo-4. After this loading with dye, the cells were washed, test substance was added, and changes in the intracellular Ca^2+ concentration were measured in the FLIPR instrument. Results have been presented as percentage change relative to the control (0%: no test substance added; 100%:10 μM reference agonist linoleic acid added).

T1 sequence (O14842 whole entry): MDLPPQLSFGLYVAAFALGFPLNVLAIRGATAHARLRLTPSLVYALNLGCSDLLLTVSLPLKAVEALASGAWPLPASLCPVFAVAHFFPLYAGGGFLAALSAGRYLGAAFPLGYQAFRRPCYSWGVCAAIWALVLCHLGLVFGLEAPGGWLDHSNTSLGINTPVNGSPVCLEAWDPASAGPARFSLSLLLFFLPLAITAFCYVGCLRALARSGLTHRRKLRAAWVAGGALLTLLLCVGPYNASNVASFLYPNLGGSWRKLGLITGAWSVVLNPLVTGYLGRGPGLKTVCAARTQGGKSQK

Compound	% activation @ 100 μM
O=C(O)C1CCC(CNc2ncc(-c3ccccc3)c(-c3ccccc3)n2)CC1 (stereo not shown) [Example 1, 4-[(4,5-Diphenylpyrimidin-2-ylamino)methyl]cyclohexanecarboxylic acid]	79%
O=C(O)C(F)(F)F.O=C(O)CCCCCCCNc1ncc(-c2ccccc2)c(-c2ccccc2)n1 [Example 3, 8-(4,5-Diphenylpyrimidin-2-ylamino)octanoic Acid Trifluoroacetate]	104%
O=C(O)C(F)(F)F.O=C(O)CCCCCCNc1ncc(-c2ccccc2)c(-c2ccccc2)n1 [Example 4, 7-(4,5-Diphenylpyrimidin-2-ylamino)heptanoic Acid Trifluoroacetate]	94%
O=C(O)C(F)(F)F.O=C(O)CCCCCNc1ncc(-c2ccccc2)c(-c2ccccc2)n1 [Example 5, 6-(4,5-Diphenylpyrimidin-2-ylamino)hexanoic acid trifluoroacetate]	73%
